How the values were obtained:
β3 integrins = molecular target: T1, β3 integrins (Homo sapiens, UniProt P05106); settings: cited from earlier work
T1 sequence (P05106 27-788): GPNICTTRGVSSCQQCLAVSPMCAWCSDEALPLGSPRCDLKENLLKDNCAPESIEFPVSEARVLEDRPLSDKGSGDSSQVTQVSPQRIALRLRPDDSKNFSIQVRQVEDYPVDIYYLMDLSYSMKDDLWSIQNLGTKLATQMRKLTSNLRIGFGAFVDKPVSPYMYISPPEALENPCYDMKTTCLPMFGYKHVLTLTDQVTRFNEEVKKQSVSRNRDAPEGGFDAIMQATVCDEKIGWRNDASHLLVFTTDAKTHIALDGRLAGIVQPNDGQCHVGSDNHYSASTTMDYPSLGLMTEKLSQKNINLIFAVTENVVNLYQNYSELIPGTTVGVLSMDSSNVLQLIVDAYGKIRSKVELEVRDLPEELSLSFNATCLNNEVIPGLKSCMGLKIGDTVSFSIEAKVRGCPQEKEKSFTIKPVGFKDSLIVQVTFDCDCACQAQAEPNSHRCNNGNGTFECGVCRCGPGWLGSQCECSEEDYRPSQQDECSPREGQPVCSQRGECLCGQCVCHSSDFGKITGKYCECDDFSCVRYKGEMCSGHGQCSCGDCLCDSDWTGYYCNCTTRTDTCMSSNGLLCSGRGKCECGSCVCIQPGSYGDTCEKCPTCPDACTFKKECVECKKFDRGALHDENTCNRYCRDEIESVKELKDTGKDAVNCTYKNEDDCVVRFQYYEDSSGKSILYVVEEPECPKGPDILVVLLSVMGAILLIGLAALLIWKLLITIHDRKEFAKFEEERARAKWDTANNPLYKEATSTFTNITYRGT

β1 integrins = β1 integrins (Homo sapiens, UniProt P05556); settings: cited from earlier work
Chain of β1 integrins (P05556 21-798): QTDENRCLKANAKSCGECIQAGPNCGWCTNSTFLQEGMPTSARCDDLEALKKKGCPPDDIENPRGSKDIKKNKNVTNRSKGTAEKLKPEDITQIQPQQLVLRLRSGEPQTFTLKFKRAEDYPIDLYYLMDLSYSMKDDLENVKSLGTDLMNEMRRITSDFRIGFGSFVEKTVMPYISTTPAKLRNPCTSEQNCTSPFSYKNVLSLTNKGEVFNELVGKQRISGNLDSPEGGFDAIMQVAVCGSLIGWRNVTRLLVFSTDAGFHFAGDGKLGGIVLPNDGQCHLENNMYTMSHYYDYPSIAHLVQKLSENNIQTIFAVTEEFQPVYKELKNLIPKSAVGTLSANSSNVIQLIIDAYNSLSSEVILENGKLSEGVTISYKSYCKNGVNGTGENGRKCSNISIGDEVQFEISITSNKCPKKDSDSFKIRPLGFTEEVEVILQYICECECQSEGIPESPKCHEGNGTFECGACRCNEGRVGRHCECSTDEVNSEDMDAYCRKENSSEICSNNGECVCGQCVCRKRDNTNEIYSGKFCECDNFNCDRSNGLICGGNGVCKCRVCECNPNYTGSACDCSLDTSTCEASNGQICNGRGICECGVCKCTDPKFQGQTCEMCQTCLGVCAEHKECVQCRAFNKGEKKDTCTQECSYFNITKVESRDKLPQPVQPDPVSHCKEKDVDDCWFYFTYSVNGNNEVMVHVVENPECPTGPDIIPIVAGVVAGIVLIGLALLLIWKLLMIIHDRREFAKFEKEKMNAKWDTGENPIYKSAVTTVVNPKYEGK

septic mice = settings: 'mid-grade' sepsis (CLP), 200 μg i.v. 12 hours before and after CLP
Method: (§1) 200 μg of the RGD peptide or PBS was given 12 hours before and after CLP via i.v. injection (n=20 per group). […] 200 μg of the RGD peptide or PBS was given via i.v. injection before receiving […] of LPS (i.p.) (n=10 per group). The statistical significance of mortality was determined by the Kaplan-Meyer log-rank test.
CLP was used to induce acute septic peritonitis as described (Rhee et al., J Surg Res 115:74 (2003)). Briefly, mice (C57BL/6, 6-8 weeks) were anesthetized using inhaled Isoflurane, a midline incision (approximately 1 cm) was made below the diaphragm, the cecum was […], ligated approximately […] distal and then punctured through and through with a 22-gauge needle. Cecum was gently squeezed to excise its contents. Sham animals underwent the same procedure with no ligation or puncture. The abdominal incision was then closed in layers with Ethilon 6.0 suture. Mice were resuscitated with 1.0 ml of Ringer's solution via subcutaneous injection. Animals recovered under a heat lamp for approximately 30 minutes and were allowed food and water ad lib.

[1] = system: mice challenged with an LD90 of LPS; settings: LPS at LD90, single dose 200 μg i.v.; control 90%
Method: as §1
In order to examine whether the RGD peptide alters mortality in ‘high-grade’ sepsis, 90% mortality was induced by endotoxemia.

human neutrophils [2] = experiment: Neutrophil adhesion assay on immobilized fibronectin (FN); format: cell-based; settings: 10 μg/ml protein
Method: The adhesion assay was carried out essentially as described (Vorup-Jensen et al., PNAS 102:1614 (2005)). Cover slips were coated with FN in coating buffer (150 mM NaCl/20 mM Tris.HCl, pH 9.0) for over night at 4° C. and for 4 hours at room temperature. Residual binding sites were blocked by incubation of the wells with 0.05% (wt/vol) polyvinylpyrrolidone in PBS for 30 minutes at room temperature. […] The cover slips were aspirated, and washed with L15 medium. […] Cells (250 μl) were then immediately added, and further incubated at 37° C. for 15 minutes. Unbound cells were then washed with warm L15 medium. The bound cells were then fixed with formaldehyde. For each experimental condition from three independent donors, five random phase-contrast images were obtained, and the number of cells in each well was scored from printed micrographs.

human neutrophils [3] = experiment: Random migration of neutrophils on FN-coated cover glass (live-cell imaging); format: cell-based; settings: for random migration of neutrophils on FN induced by fMLP: 10 μg/ml protein; for reversal of the inhibitory effect of rhAPC on neutrophil migration: agonists of PAR-1 and S1P1
Method: Delta T dishes were coated with human FN (50 μg/ml, BD Biosciences, San Jose, Calif.) for overnight at 4° C. and then for 4 h at room temperature. Plates were then rinsed with L-15 media. […] The cells were then added to FN-coated dishes in 1.5 ml of L-15 with 2 mg/ml of glucose. For neutrophil live cell staining, 2 μM Green Cell Tracker CMFDA (5-chloromethylfluorescein diacetate; Molecular Probes, Carlsbad, Calif.) was used. Temperature was maintained at 37° C. throughout the experiment using a FCS2 live-cell imaging chamber (Bioptechs, Butler, Pa.). Images were acquired for 30 to 60 minutes under a 10× objective lens using a Nikon TE-2000U inverted microscope. Phase contrast images were acquired every 5 seconds and fluorescence images every 30 seconds. Cell paths were traced using MetaVue™ imaging software (Molecular Devices Corporation, Downingtown, Pa.).
Random migration was investigated by adding fMLP or IL-8 to media at a final concentration of 10^−8M and analyzed by manually tracing the outline of each cell in selected frames (i.e., at 50 second intervals). The x and y coordinates of each cell were measured using ImageJ software and were corrected so that the starting position was x=0 and y=0.
The time-lapsed images of migrating neutrophils were taken under phase contrast microscopy. Each image was thresholded and binarized based on brightness to define the centroids of the neutrophils. The closest centroids between consecutive images were linked as a trajectory under the assumption that these centroids were made by the same neutrophil. The maximum distance between the closest centroids was also defined to preclude the artifacts due to cells moving into and out of the field of view.

hEPCR-mCFP and β1-mYFP = molecular target: T2, hEPCR-mCFP and β1-mYFP (Homo sapiens, UniProt P05556+Q9UNN8); experiment: Dynamic FRET (TIRF) between hEPCR-mCFP and β1-mYFP in HEK293 cells; format: cell-based
T2 construct: expressed in transfected cells; host or cells: HEK293
T2 sequence (Q9UNN8 18-238): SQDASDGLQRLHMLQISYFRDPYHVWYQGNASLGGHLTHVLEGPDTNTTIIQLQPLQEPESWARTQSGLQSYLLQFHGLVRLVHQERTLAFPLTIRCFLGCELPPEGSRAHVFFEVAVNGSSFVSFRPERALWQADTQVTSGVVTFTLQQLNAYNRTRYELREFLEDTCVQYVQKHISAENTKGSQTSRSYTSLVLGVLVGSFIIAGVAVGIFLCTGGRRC
T2 sequence (P05556 21-798): as the sequence (P05556 21-798) above
Method: Dynamic FRET imaging was carried out using a Nikon Eclipse TE2000-U microscope (Nikon, Melville, N.Y.) equipped with a Dual-View (Optical Insights, Tucson, Ariz.) and CFP/YFP dual-band filter set (Chroma, Rockingham, Vt.). TIRF imaging was performed with a white light TIRF aperture diaphragm and a 100×TIRF 1.49 NA oil immersion objective coupled to a QuantEM EMCCD (Roper Scientific, Tucson, Ariz.). The microscope was controlled by NIS element software (Nikon, Melville, N.Y.) and data analysis was performed with AutoDeblur (Autoquant Imaging, Troy, N.Y.) by the sensitized emission method (Gordon et al., Biophys. J. 74:2702 (1998)). 48 hours after co-transfection with hEPCR-mCFP and β1-mYFP DNA construct in Delta T dish (Fisher Scientific, Pittsburgh, Pa.), HEK293 cells were washed with PBS and then 1 ml L15 medium supplemented with 2 mg/ml D-glucose. Cells were equilibrated for about 10 minutes at 37° C. in a FCS2 live cell imaging chamber (Bioptechs, Butler, Pa.). […]
Therefore, it was tested whether the anti-EPCR antibody relieved the rhAPC-induced inhibition of neutrophil adhesion on FN. […] Since the ligand will only bind to cell surface receptors, optical measurements were confined to the plasma membrane using through the objective total internal reflection fluorescence (TIRF).

αVβ3 = molecular target: T3, αVβ3 (Homo sapiens, UniProt P05106+P06756); experiment: Solid phase integrin ligand binding assay; settings: 1 mM Mn2+, 1 mM Ca2+, 1 mM Mg2+
T3 construct: purchased US Biological, Swampscott, Mass
T3 sequence (P06756 31-889 limits assumed, one chain of several): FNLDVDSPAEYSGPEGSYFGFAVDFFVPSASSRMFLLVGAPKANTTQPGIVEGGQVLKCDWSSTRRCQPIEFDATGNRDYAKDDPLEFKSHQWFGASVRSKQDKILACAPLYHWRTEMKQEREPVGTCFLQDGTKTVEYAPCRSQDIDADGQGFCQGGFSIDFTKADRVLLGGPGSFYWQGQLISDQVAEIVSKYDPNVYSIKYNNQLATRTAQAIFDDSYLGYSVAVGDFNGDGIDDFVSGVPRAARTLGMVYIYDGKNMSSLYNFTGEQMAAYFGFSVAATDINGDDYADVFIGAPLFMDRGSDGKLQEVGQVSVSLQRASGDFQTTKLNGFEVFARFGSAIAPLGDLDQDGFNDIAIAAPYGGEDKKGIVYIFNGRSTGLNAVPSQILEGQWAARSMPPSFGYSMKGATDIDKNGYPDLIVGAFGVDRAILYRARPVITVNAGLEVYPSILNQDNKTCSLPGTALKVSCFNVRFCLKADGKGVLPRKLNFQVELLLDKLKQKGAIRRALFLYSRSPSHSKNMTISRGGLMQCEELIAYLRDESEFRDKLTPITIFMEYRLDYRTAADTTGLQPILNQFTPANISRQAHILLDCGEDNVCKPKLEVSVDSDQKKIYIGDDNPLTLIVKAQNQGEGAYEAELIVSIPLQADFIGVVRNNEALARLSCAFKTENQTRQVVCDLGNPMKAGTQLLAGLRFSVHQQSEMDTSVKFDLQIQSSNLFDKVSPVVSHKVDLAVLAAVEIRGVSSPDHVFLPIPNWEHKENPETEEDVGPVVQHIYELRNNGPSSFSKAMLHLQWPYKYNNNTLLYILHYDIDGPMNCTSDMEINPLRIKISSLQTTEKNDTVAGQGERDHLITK
T3 sequence (P06756 891-1048 partner limits assumed, one chain of several): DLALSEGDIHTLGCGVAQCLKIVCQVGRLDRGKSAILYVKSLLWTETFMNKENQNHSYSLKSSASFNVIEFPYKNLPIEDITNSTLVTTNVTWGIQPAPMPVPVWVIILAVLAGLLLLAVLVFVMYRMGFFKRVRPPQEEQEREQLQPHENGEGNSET
Method: (§2) The solid phase binding assay was performed using purified soluble human α3β1, α5β1, and αVβ3 (US Biological, Swampscott, Mass.). Two (2) μg/ml of soluble integrins were added to microtiter wells for capture with immobilized monoclonal antibody against β1 or β3 subunits (mAb TS2/6 for β1 and mAb BB10 (Chemicon, Temecula, Calif.) for β3 integrins). […] After washing, bound APC was chromogenically detected by peroxidase-streptavidin conjugate anti-PC (Diapharma, West Chester, Ohio) or chromogenic substrate S-2366 (Diapharma, West Chester, Ohio). To minimize dissociation, all wash buffers contained 1 mM Mn^2+, and <15 minutes elapsed between the end of binding and beginning of color development. Functional blocking antibodies for integrins were from Chemicon (Temecula, Calif.).
(§3) Among the neutrophil integrins that recognize the RGD motif, α3β1, α5β1, and αVβ3 are key in regulating neutrophil chemotaxis (Yauch et al., Mol. Biol. Cell 9:2751 (1998); Burns et al., J. Immunol. 166:4644 (2001); Sixt et al., J. Biol. Chem. 276:18878 (2001)). To test whether APC can bind directly to the integrins, an ELISA-like solid phase receptor-binding assay was performed (FIG. 2E). Soluble α3β1, α5β1, and αVβ3 were captured onto microtiter wells using mAbs specific for β1 or β3.

α3β1 = molecular target: T4, α3β1 (Homo sapiens, UniProt P05556+P26006); experiment: Solid phase integrin ligand binding assay; settings: 1 mM Mn2+, 1 mM Ca2+, 1 mM Mg2+
T4 construct: purchased US Biological, Swampscott, Mass
T4 sequence (P26006 33-872 limits assumed): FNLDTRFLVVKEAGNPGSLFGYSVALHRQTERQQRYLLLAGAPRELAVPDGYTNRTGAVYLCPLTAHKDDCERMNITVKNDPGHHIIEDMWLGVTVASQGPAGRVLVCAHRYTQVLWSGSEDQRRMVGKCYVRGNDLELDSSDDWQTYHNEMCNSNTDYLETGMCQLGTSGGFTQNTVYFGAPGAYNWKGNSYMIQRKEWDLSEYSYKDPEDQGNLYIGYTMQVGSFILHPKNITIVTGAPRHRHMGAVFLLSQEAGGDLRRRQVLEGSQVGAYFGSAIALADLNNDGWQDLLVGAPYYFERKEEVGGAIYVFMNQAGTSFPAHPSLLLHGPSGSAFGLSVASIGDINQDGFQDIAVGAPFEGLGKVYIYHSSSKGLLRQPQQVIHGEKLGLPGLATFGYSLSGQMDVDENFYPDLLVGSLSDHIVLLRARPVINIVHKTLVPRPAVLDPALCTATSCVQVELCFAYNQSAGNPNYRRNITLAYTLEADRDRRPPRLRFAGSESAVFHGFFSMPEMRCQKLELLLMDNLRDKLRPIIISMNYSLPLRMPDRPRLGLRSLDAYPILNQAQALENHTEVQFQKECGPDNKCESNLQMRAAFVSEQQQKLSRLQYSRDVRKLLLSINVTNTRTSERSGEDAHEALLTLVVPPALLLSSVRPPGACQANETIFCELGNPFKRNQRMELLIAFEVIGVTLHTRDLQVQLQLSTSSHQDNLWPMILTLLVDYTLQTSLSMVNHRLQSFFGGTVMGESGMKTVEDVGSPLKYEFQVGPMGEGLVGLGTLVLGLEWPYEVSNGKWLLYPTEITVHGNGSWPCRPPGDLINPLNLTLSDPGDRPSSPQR
T4 sequence (P26006 876-1051 partner limits assumed): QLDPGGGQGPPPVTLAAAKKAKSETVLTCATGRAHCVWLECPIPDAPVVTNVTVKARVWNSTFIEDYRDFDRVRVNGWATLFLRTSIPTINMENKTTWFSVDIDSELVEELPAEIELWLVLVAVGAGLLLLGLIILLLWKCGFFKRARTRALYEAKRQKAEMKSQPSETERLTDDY
T4 sequence (P05556 21-798): as the sequence (P05556 21-798) above
Method: as §2, §3

α5β1 = molecular target: T5, α5β1 (Homo sapiens, UniProt P05556+P08648); experiment: Solid phase integrin ligand binding assay; settings: 1 mM Mn2+, 1 mM Ca2+, 1 mM Mg2+
T5 construct: purchased US Biological, Swampscott, Mass
T5 sequence (P08648 42-894 limits assumed): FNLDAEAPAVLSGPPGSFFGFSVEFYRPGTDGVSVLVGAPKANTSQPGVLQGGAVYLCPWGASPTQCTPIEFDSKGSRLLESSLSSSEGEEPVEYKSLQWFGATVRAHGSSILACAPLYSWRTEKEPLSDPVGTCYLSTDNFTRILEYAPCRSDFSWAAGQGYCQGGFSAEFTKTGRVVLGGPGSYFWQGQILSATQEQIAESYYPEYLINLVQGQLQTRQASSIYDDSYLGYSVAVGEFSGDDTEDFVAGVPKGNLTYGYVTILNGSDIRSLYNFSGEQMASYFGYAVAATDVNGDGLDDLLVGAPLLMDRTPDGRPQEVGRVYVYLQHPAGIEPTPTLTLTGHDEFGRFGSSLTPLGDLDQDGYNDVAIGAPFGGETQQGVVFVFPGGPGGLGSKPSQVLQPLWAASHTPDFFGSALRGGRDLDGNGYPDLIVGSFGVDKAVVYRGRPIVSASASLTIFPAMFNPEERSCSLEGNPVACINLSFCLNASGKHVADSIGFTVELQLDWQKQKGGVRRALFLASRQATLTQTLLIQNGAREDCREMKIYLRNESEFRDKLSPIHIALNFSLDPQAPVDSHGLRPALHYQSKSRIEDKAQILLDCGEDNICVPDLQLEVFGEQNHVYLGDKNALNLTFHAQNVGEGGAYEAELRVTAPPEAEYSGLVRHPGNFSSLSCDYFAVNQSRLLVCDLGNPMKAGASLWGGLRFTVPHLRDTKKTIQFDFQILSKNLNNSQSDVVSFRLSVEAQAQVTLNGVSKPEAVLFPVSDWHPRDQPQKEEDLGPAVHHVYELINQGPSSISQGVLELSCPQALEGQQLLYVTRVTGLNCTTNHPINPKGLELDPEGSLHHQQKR
T5 sequence (P08648 895-1049 partner limits assumed): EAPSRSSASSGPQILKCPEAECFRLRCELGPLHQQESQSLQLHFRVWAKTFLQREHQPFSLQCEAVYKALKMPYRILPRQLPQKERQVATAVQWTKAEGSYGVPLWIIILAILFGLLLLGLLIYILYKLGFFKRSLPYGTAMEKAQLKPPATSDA
T5 sequence (P05556 21-798): as the sequence (P05556 21-798) above
Method: as §2, §3

**Q.** For “acetyl-c[(penicillamine)-O-methyltyrosine-ARGDN(tetrahydroisoquinoline-3-carboxylic acid)C]—NH2 [RGD peptide]”, which “affinity to β3 integrins” value (β3 integrins) is on record?
**A.** The value was “high affinity”.

**Q.** And the “affinity to β1 integrins” value (β1 integrins)?
**A.** Its value is “high affinity”.

**Q.** And the 7-day mortality (septic mice)?
**A.** The 7-day mortality was “no significant change”.

**Q.** And the time of survival (septic mice)?
**A.** Its time of survival is “reproducibly prolonged”.

**Q.** And the mortality [1]?
**A.** The mortality was 60%.

**Q.** For “rhPC: the zymogen protein C, not activated [reference compound]”, which “fMLP-induced adhesion of human neutrophils to immobilized FN” value (human neutrophils [2]) is on record?
**A.** Its value is “failed to block”.

**Q.** And the “random migration of neutrophils on FN induced by fMLP” value (human neutrophils [3])?
**A.** Its value is “failed to block”.

**Q.** Which “reversal of the inhibitory effect of rhAPC on neutrophil migration” value (human neutrophils [3]) does the source give for “SFLLRNPNDKYEPF (Aritficial Sequence) [reference compound]” here?
**A.** The value was “did not reverse”.

**Q.** Which “reversal of the inhibitory effect of rhAPC on neutrophil migration” value (human neutrophils [3]) does the source give for `FC(F)(F)c1cccc(-c2noc(-c3cc(-c4ccccc4)c(C(F)(F)F)s3)n2)c1` [SEW2871, reference compound] here?
**A.** Its value is “did not reverse”.

B1: Gla-less APC: mutant form of APC that lacks the EPCR binding motif (Enzyme Research Lab.) (protein)
chain: SKHVDGDQCLVLPLEHPCASLCCGHGTCIDGIGSFSCDCRSGWEGRFCQREVSFLNCSLDNGGCTHYCLEEVGWRRCSCAPGYKLGDDLLQCHPAVKFPCGRPWKRMEKKRSHLLIDGKMTRRGDSPWQVVLLDSKKKLACGAVLIHPSWVLTAAHCMDESKKLLVRLGEYDLRRWEKWELDLDIKEVFVHPNYSKSTTDNDIALLHLAQPATLSQTIVPICLPDSGLAERELNQAGQETLVTGWGYHSSREKEAKRNRTFVLNFIKIPVVPHNECSEVMSNMVSENMLCAGILGDRQDACEGDSGGPMVASFHGTWFLVGLVSWGEGCGLLHNYGVYTKVSRYLDWIHGHIRDKEAPQKSWAP
**Q.** For B1, which “fMLP-induced adhesion of human neutrophils to immobilized FN” value (human neutrophils [2]) is on record?
**A.** The value was “inhibited adhesion to a slightly less, but similar, degree as the wild type protein”.

**Q.** And the “FRET efficiency between EPCR-mCFP and β1-mYFP” value (hEPCR-mCFP and β1-mYFP)?
**A.** The value was “No obvious FRET change”.

B2: RGE-APC: rhAPC mutant with the RGD sequence mutated to RGE (Glu in place of Asp-222) (protein)
chain 1: ANSFLEELRHSSLERECIEEICDFEEAKEIFQNVDDTLAFWSKHVDGDQCLVLPLEHPCASLCCGHGTCIDGIGSFSCDCRSGWEGRFCQREVSFLNCSLDNGGCTHYCLEEVGWRRCSCAPGYKLGDDLLQCHPAVKFPCGRPWKRMEKKRSHL
chain 2: LIDGKMTRRGESPWQVVLLDSKKKLACGAVLIHPSWVLTAAHCMDESKKLLVRLGEYDLRRWEKWELDLDIKEVFVHPNYSKSTTDNDIALLHLAQPATLSQTIVPICLPDSGLAERELNQAGQETLVTGWGYHSSREKEAKRNRTFVLNFIKIPVVPHNECSEVMSNMVSENMLCAGILGDRQDACEGDSGGPMVASFHGTWFLVGLVSWGEGCGLLHNYGVYTKVSRYLDWIHGHIRDKEAPQKSWAP
**Q.** With B2 as the molecule, how does the “direct binding to soluble αVβ3” value (αVβ3) read?
**A.** Its value is “significantly less”.

**Q.** What about the “direct binding to soluble α3β1” value (α3β1) of the same molecule?
**A.** The value was “significantly less”.

**Q.** And the “direct binding to soluble α5β1” value (α5β1)?
**A.** Its value is “significantly less”.

**Q.** And the “random migration of neutrophils on FN induced by fMLP” value (human neutrophils [3])?
**A.** The value was “had no effect”.
